The target in the assay is T1, T315I mutant form of BCR-ABL in Ba/F3 cells (Homo sapiens, UniProt P00519, T315I).
T1 construct: expressed in transfected cells; host or cells: Ba/F3 cells; the other entry of the earlier key: BCR (P11274, Breakpoint cluster region protein)
T1 sequence (P00519 242-493 T315I limits assumed): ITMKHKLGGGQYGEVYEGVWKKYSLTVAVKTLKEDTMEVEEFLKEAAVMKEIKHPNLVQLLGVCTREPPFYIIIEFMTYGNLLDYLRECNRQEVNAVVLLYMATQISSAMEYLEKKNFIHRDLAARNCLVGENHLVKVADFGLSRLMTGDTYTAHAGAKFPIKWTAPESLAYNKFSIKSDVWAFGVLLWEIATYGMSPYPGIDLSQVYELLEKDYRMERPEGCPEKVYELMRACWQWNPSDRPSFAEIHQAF
As to the kind of experiment: Abl_T315I p-ELISA Cellular Assay (BCR-ABL phospho-ELISA). The note with it: 60-120 minutes incubation. The format is cell-based. The protocol: Cells (Ba/F3 cells transfected with WT BCR-ABL, other kinases, or T315I, Y253F, M351T, E255K, or other mutant forms of BCR-ABL) were grown in the absence of IL-3 at least ½ week before the assay. The day before assay, the cells were fed with fresh media so that at the time of assay the cells were in log phase. Ba/F3 cells that had been grown in the absence of IL-3 for at least ½ week were resuspended in RPMI 1640 so that each well of a 96-well plate would contain approximately 200,000 cells. Cells were distributed in a 96-well plate containing serially diluted concentrations of test compounds. Cells were typically incubated with or without test compounds for 60-120 minutes at 5% CO2, 37° C. The incubation was performed with or without other additives such as 10% FCS or 50% human plasma. After incubation of compounds, lysis buffer was added and incubated for 10-15 minutes; the lysate was cleared by centrifugation.
To make the ELISA plate, commercially available Anti-ABL antibodies (e.g. (Ab-3, Calbiochem OP20) were prepared at a concentration of 0.125 μg/ml in coating buffer (0.1M Na-carbonate, pH 9.5), and plated at 10 ml per plate (12.5 μl 100 μg/ml Ab/10 ml). In a high binding multi-well plate, 100 μl Ab in coating buffer were added to each well, and each plate was covered with a plate seal and incubated overnight at 4° C.
Excess antibody was removed and the ELISA plate was washed 3-4 times with 200 μl of wash buffer (0.05% Tween in PBS, pH 7.4). 150 μl of lysate (see above) were transferred to the ELISA plate. Plates were sealed and incubated 2 hours at room temperature. The detection antibody (e.g. HRP conjugated anti-pTyr or unconjugated α-p-Y 4G10, Upstate) was prepared in assay diluent. The antibody was diluted 1:1000 (stock=2 μg/μl, 200 μg in 100 μl; f.c.=2 μg/ml) in assay diluent and 10 ml of diluted antibody per plate were added. The lysate was removed from the ELISA plates, and wells were washed four times with 200 μl of wash buffer per well. 100 μl of detection antibody was added to each well; the plate was covered, and incubated 1 hr at room temperature (21° C.). Excess detection antibody was removed from the ELISA plates, and the wells were washed four times with 200 μl of wash buffer per well.
If necessary, (i.e. for unconjugated anti-pTyr antibody) secondary antibody (goat anti-rabbit HRP) was diluted 1:3000 in assay diluent (3.33 μl per 10 ml diluent) and added at 10 ml of diluted antibody per plate. Excess secondary antibody was removed from the ELISA plate, and the plate was washed four times with 200 μl per well of wash buffer.
Substrate Reagent A and Substrate Reagent B (Pierce Cat#37070 SuperSignal ELISA Pico Chemiluminescent Substrate) were added immediately before use (10 ml resultant solution per plate). 100 μl substrate were added per well, mixed for 1 minute, and chemiluminescent signal was measured with a luminometer.
A general note: An ELISA detects its analyte on a solid surface through an enzyme-linked reagent.
`CNC(=O)c1cncc(-c2cnc3[nH]cc(-c4ccccc4OC)c3c2)c1` [AE1] returned an IC50 below 100 nM. For the compound `CNC(=O)c1cc(-c2cnc3[nH]cc(-c4ccccc4OC)c3c2)cs1` [AE2], the IC50 lay within 100 to 1000 nM. With `COc1ccccc1-c1c[nH]c2ncc(-c3csc(C(=O)N(C)C)c3)cc12` [AE3], the IC50 is below 100 nM. The figure for `COc1ccccc1-c1c[nH]c2ncc(-c3cc[nH]c(=O)c3)cc12` [AE9] is 100 to 1000 nM. The compound `COc1ccccc1-c1c[nH]c2ncc(-c3ccc(S(N)(=O)=O)s3)cc12` [AE11] yielded an IC50 of 100 to 1000 nM.

In turn, `COc1ccccc1-c1c[nH]c2ncc(-c3cccc(S(C)(=O)=O)c3)cc12` [AE13] displayed an IC50 of 100 to 1000 nM. For `O=C(c1cncc(-c2cnc3[nH]cc(-c4ccc5cc[nH]c5c4)c3c2)c1)N1CCOCC1` [AE14], the IC50 is below 100 nM. Compound `N#Cc1cc(-c2cnc3[nH]cc(-c4ccc5[nH]ccc5c4)c3c2)ccc1O` [AE20] displayed an IC50 below 100 nM. `c1cc2cc(-c3c[nH]c4ncc(-c5ccc6[nH]cnc6c5)cc34)ccc2[nH]1` [AE22] yielded an IC50 of 100 to 1000 nM. Take `COc1ccccc1-c1c[nH]c2ncc(-c3ccc(O)c(CN4CCCN(C)CC4)c3)cc12` [AE41]: the IC50 is below 100 nM. With `COc1ccccc1-c1c[nH]c2ncc(-c3cccc(C(=N)N4CCCCC4)c3)cc12` [AE42], the IC50 is below 100 nM. Next, `Oc1cccc(-c2cnc3[nH]cc(-c4ccc(O)c(F)c4)c3c2)c1` [AE48]: 100 to 1000 nM.

For `Oc1cccc(-c2cnc3[nH]cc(-c4ccn[nH]4)c3c2)c1` [AE49], the IC50 is 100 to 1000 nM. For `Nc1nc(-c2c[nH]c3ncc(-c4ccc5[nH]ccc5c4)cc23)cs1` [AE55], the concentration for half-maximal inhibition (IC50) is below 100 nM.

Turning to `COc1cc(-c2cnc3[nH]cc(-c4ccc(O)cc4)c3c2)ccc1O` [AE58], the IC50 is below 100 nM.

The compound `COc1cc(-c2cnc3[nH]cc(-c4ccccc4OC)c3c2)ccc1O` [AE64] yielded an IC50 below 100 nM.

By IC50 is commonly meant the midpoint of a concentration-inhibition curve. Low values mean greater potency, high ones weaker potency.

(Values after patent publication US7709645B2, “Pyrrolo-pyridine kinase modulators” (SGX Pharmaceuticals, Inc., priority 2004, dated 2010).)
